Target: T1, p38 MAP kinase (Homo sapiens, UniProt Q16539)
T1 construct: made in house; host or cells: E. coli
Test: P38 MAP kinase binding assay (competition with fluorescent probe SKF 86002)
Conditions: inhibition assigned as time-dependent if the IC50 values decrease with the reaction time (more than two-fold in four hours)
Description: Thus, the ability of a small molecule to block fluoroprobe binding provides an experimental readout of binding to the switch control pocket. […] The reaction was initiated by addition of the enzyme. […] By comparison of rfu (relative fluorescence unit) values with that of a control (in the absence of small molecule modulators), the percentage of inhibition at each concentration of the small molecules were calculated. IC50 values for the small molecule modulators were calculated from the % inhibition values obtained at a range of concentrations of the small molecule modulators using Prism. When time-dependent inhibition was assessed, the plate was read at multiple reaction times such as 0.5, 1, 2, 3, 4 and 6 hours. The IC50 values were calculated at each time point. An inhibition was assigned as time-dependent if the IC50 values decrease with the reaction time (more than two-fold in four hours).

T1 sequence (Q16539 whole entry): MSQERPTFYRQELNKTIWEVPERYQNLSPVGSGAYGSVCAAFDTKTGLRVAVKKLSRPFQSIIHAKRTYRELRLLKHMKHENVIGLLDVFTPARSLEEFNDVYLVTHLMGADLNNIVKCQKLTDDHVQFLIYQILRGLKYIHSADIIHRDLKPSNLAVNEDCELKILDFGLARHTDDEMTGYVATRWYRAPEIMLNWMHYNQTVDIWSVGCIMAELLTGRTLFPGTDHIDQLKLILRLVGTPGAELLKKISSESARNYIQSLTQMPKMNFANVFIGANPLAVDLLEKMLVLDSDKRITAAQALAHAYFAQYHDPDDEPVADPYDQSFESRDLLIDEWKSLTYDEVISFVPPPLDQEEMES

| Time-dependent | Structure (SMILES) |
| --- | --- |
| No | CC1(C(=O)O)CC2(C)CC(C)(C1)C(=O)N(Cc1cccc(-n3nc(C(C)(C)C)cc3NC(=O)Nc3cccc4ccccc34)c1)C2=O (stereo not shown) [Example 11] |
| No | CC1(C(=O)O)CC2(C)CC(C)(C1)C(=O)N(Cc1cccc(-n3nc(C(C)(C)C)cc3NC(=O)Nc3ccc(Cl)cc3)c1)C2=O (stereo not shown) [Example 12] |
| Yes | CC(C)(C)c1cc(NC(=O)Nc2cccc3ccccc23)n(-c2cccc(CC(=O)N3CCOCC3)c2)n1 [Example 21, 1-{3-tert-butyl-1-[3-(2-morpholino-2-oxoethyl)phenyl)-1H-pyrazol-5-yl}-3-(naphthalene-1-yl)urea] |
| No | CC(C)(C)c1cc(NC(=O)Nc2cccc3ccccc23)n(-c2ccc(CN)cc2)n1 [Example 45, 1-{3-tert-butyl-1-[4-(aminomethyl)phenyl]-1H-pyrazol-5-yl}-3-(naphthalen-1-yl)urea] |

Source: patent publication US20080248548A1, “MODULATION OF PROTEIN FUNCTIONALITIES” (priority 2007, published 2008)
